Assay results published in patent publication US7030087B2, “Synthetic approach to designed chemical structures” (priority 1996, dated 2006).
Marks after values point to notes of the source that are not given here. No end group written: not given here.

Tests used:
E. coli 055:B5 endotoxin = assay: Chromogenic Limulus amoebocyte lysate test, neutralization of endotoxin in vitro; type: biochemical; details: 0.01 ng of LPS mixed with 5×10^−6M peptide
Procedure: (§1) LPS derived from P. aeruginosa and E. coli 0111:B4 or 055:B5 was purchased from List Biological Laboratories (Campbell, Calif.) and stored at 4° C. until use. A commercially available chromogenic Limulus amoebocyte lysate test (Whittaker, Walkersville, Md.) was used to measure endotoxin levels in all solutions and serum samples. Endotoxin levels in peptide solutions were determined to be less than about 0.1 ng/ml. The capacity of BG22, βpep-3 and BG16 to neutralize E. coli 055:B5 endotoxin in vitro was determined by mixing 0.01 ng of LPS with 5×10^−6M of each peptide and results were compared to that observed for 0.01 ng of LPS alone.

TNF-α = assay: Endotoxemia in vivo, serum TNF-α levels; parameters: species or system mouse; details: 90 minutes post-challenge; compared to mice receiving LPS without peptide, p<0.05
Procedure: TNF-α concentrations were measured as described by Battafarano et al. (supra). Briefly, the TNF-α sensitive cell line WEHI was used in all assays of either RAW cell supernatant (in vitro) or serum (in vivo animal model). Concentrations were extrapolated from a standard curve based oil dilutions of purified TNF-α (Genzyme, Cambridge, Mass.), and all samples were examined in triplicate. Viability of the WEHI cells was assessed by measuring the extent of cellular crystal violet uptake by spectrophotometry at 590 nm. In this assay, absorbance was inversely correlated with cell death and lysis resulting from exposure of WEHI cells to TNF-α. The amount of TNF-α in each experimental sample was extrapolated from the standard curve.
(§2) To study endotoxemia in a mammal, 500 μg of each peptide was added to 8 μg of Pseudomonas aeruginosa LPS in 2.0 ml of pyrogen-free phosphate buffered saline (PBS) ex vivo, and incubated for 30 minutes on a shaker at room temperature. Each mouse was injected via tail vein with 0.5 ml of the mixture (125 μg of BG22, BG16, or βpep-3 and 2 μg of LPS per mouse). Mice were euthanized at 30, 60, 90 and 120 minutes after injection and serum collected just prior to death was analyzed for endotoxin levels and TNF-α concentration.
All TNF-α and endotoxin measurements in duplicate or triplicate in each experiment. […]

[1] = test system: Pseudomonas aeruginosa LPS; assay: Endotoxemia in vivo, serum endotoxin levels; parameters: unit not given here; details: iv 125 μg peptide preincubated with 2 μg LPS per mouse
Procedure: as §1, §2
All TNF-α and endotoxin measurements in duplicate or triplicate in each experiment. In vivo experiments were performed twice to confirm reproducibility. The results obtained were compared using the unpaired Student's t-test.

[2] = test system: endothelial cells (FBHEC, HUVEC); assay: Endothelial cell proliferation assay of βpeptides 1–24 (FIG. 7); type: cell-based
Procedure: FIG. […] FIG. 7A provides ^3H-Thymidine incorporation data for FBHEC cells and FIG. 7B provides ^3H-Thymidine incorporation data for HUVEC cells.
βpeptides 1–24 were tested in an endothelial cell proliferation assay using ^3H-thymidine incorporation. […]

P. aeruginosa = assay: Bactericidal activity assay; type: cell-based, Pseudomonas aeruginosa type 1; details: for Bactericidal Activity, % killing: 1.2 × 10^−7 M Peptide, 5 × 105 P. aeruginosa; for Bactericidal Activity, % killing at the effective dose: at the Ed for the same peptide; for Bactericidal Activity, Ed, Effective M dose: dose at which the % in brackets was found
Source text: Bacteria: P. aeruginosa type 1 is a clinical isolate maintained in the laboratory. The isolate remains a smooth strain and was serotyped by the scheme of Homma. The Pseudomonas strain was maintained by monthly transfer on blood agar plates.
The peptides can be assayed for bactericidal activity against a variety of organisms such as Pseudomonas aeruginosa type 1, P. cepacia ATCC 25608, E. coli B, and Staphylococcus aureus 502A by standard methods.
Pseudomonas aeruginosa type 1 is a clinical isolate. The isolate remains a smooth strain and was serotyped by the scheme of Homma (Jpn. J. Exp. Med. 46:329, 1976). A rough strain, E. coli B and S. aureus 502A were obtained from Paul Quie, University of Minnesota (Minneapolis, Minn.). The characteristics of the S. aureus strain have been described by Shinefield et al. (Amer. J. Dis. Chil. 105:646, 1963). Pseudomonas cepacia ATCC 25608 can be purchased from the ATCC. S. aureus and E. coli were maintained on nutrient agar plates and the Pseudomonas strains were maintained on blood agar plates.
Pyrogen-free solutions were used throughout the assay and all methods that follow. Log phase bacteria were prepared from a culture in brain heart infusion broth (Hovde et al. Infect. Immun. 54:142–148, 1986) and bacteria were washed and resuspended in saline with adjustment to an optical density at 650 nm to provide a yield of about 3×10^8 CFU/ml. Bacteria were diluted 1:10 in 0.08M citrate phosphate buffer, pH 5.6 or pH 7.0, for use in the assay. S. aureus rapidly lost viability in the pH 5.6 buffer and was studied only at pH 7.0. Bactericidal activity was determined by dose response over peptide concentrations ranging from about […] to about 4.1×10^−9M. Bactericidal activity was determined by dose response, preferably determining LD50 by linear regression.

[3] = test system: endotoxin from E. coli 055:B5; assay: Limulus amoebocyte lysate assay (E-TOXATE), endotoxin neutralization; type: biochemical; details: for Endotoxin Neutralization, % neutralization: 5.0 × 10^−6 M Peptide; for Endotoxin Neutralization, % neutralization / Endotoxin Neutralization, % at the effective dose / Endotoxin Neutralization, Ed, Effective M dose: Table 4; for Endotoxin Neutralization, % at the effective dose: at the Ed
Procedure: The peptides were tested for their ability to neutralize endotoxin. Quantitative endotoxin activities for these peptides were measured by Limulus amoebocyte lysate assay.
Limulus amoebocyte lysate assay: The ability of synthetic peptides to neutralize endotoxin was detected with the E-TOXATE kit manufactured by Sigma Chemicals (St. Louis, Mo.). […] Peptide or B/PI was incubated with LPS at room temperature for 5 min in 100 ul of a 1:2 dilution of pyrogen-free saline (pH 6.4). The reaction was started by addition of 100 ul of amoebocyte lysate and the final volume was 200 ul. Assuming a 10,000 molecular weight for LPS, the approximate molar ration of B/PI:LPS at neutralization was 3000 to 1.
The peptides were tested according to the method provided above. […] BG38L was used as a positive control in these experiments.

[4] = target: the molecule itself; assay: PFG NMR self-diffusion; self-association
Procedure: (§3) Pulsed-Field Gradient (PFG) NMR Self-Diffusion Measurements of β-Peptide Series Peptides Pulsed-field gradient (PFG) NMR diffusion measurements (Gibbs, et al. *J. Magn. Reson* 93:395–402, 1991) were performed on βpep peptides to assess self-association properties. Pulsed field gradient (PFG) NMR self-diffusion measurements were made on a Bruker AMX-600 using a GRASP gradient unit. NMR spectra for measurement of diffusion coefficients, D, were acquired using a 5 mm triple-resonance probe equipped with an actively shielded z-gradient coil. […]
(§4) The Stokes-Einstein relationship $D = k_B T / 6\pi \eta R$ was used to relate D to the macro-molecular radius, R, which was considered to be proportional to the square root of the apparent molecular weight, Mapp^{1/2} (Cantor et al. 1980. *The behavior of biological macromolecules*. Biophysical Chemistry, part III. New York: W. H. Freeman. pp. 979–1039). […] Use of the Stokes-Einstein relationship is specifically derived for a hard sphere, and although the actual molecular shape of each peptide aggregate would affect the diffusion coefficient, the maximum change in the ratio $Daggregate/Dmonomer$ would be about 20% in case of an improbable linear peptide tetramer. $Mapp$ for peptides was calculated using D values of lysozyme, ribonuclease and ubiquitin as standards for monomers of known molecular weight.

[5] = target: the molecule itself; assay: PFG NMR self-diffusion at 30 C, calibrated with lysozyme, ubiquitin and ribonuclease; self-association
Procedure: Reson* 93:395–402, 1991) were performed on βpep peptides to assess self-association properties. Pulsed field gradient (PFG) NMR self-diffusion measurements were made on a Bruker AMX-600 using a GRASP gradient unit. NMR spectra for measurement of diffusion coefficients, D, were acquired using a 5 mm triple-resonance probe equipped with an actively shielded z-gradient coil. […] The PFG longitudinal eddy-current delay pulse-sequence was used for all self-diffusion measurements which were performed in D_2O over the temperature range 275° K to 310° K Peptide concentrations ranged from 3 mg/mL to 10 mg/mL.
The Stokes-Einstein relationship $D = k_B T / 6\pi \eta R$ was used to relate D to the macro-molecular radius, R, which was considered to be proportional to the square root of the apparent molecular weight, Mapp^{1/2} (Cantor et al. 1980. *The behavior of biological macromolecules*. Biophysical Chemistry, part III. New York: W. H. Freeman. pp. 979–1039). Therefore, D is proportional to Mapp^{-1/2}. From these simple relationships, the ratio $Ddimer/Dmonomer$ was 0.71, which is very close to 0.72 theoretically predicted for a two sphere dimer (Wills, et al. *J. Phys. Chem.* 85: 3978–3984, 1981). Use of the Stokes-Einstein relationship is specifically derived for a hard sphere, and although the actual molecular shape of each peptide aggregate would affect the diffusion coefficient, the maximum change in the ratio $Daggregate/Dmonomer$ would be about 20% in case of an improbable linear peptide tetramer. $Mapp$ for peptides was calculated using D values of lysozyme, ribonuclease and ubiquitin as standards for monomers of known molecular weight.
The temperature dependence of diffusion coefficients is plotted in FIG. 4. […] Moreover, for βpep-5, βpep-8 and βpep-1, the temperature dependence was linear and followed the activation energy expected for the self-diffusion of water.

[6] = target: the molecule itself; assay: PFG NMR self-diffusion, 10 C to 40 C; self-association
Procedure: as §3, §4

[7] = target: the molecule itself; assay: PFG NMR self-diffusion at 2 C; self-association
Procedure: as §3, §4

[8] = target: the molecule itself; assay: NMR solution structure; self-association
[9] = 30 minutes after LPS/Peptide injection
[10] = 60 minutes after LPS/Peptide injection
[11] = 90 minutes after LPS/Peptide injection
[12] = 120 minutes after LPS/Peptide injection
[13] = 0.02 U (0.2 pg) endotoxin from E. coli 055:B5
[14] = dose at which the % in brackets was found

For “NANIKISGKWKAQKRFLKMSGNFDLSI [BG22, a 27mer, BPI aa 82–108]”, the “% Neutralization of Endotoxin” value (E. coli 055:B5 endotoxin) was 37%, the “serum TNF-α levels (in words)” value (TNF-α) was “decreased serum TNF-α levels” and the “endotoxemia in vivo, serum endotoxin levels” value (shortened to “endotoxemia in vivo”) [1, 9] was 7*. For the same molecule, the “endotoxemia in vivo” value [1, 10] was 28*, the “endotoxemia in vivo” value [1, 11] was 73* and the “endotoxemia in vivo” value [1, 12] was 47*.

With “ANIKLSVEMKLFKRHLKWKIIVKLNDGRELSLD [βpep-8]” the “control of endothelial cell proliferation (in words)” value [2] was “little cell proliferation activity”, the “Bactericidal Activity, % killing” value (P. aeruginosa) was 0% and the “Bactericidal Activity, % killing at the effective dose” value (P. aeruginosa) was “(28.1), n = 3%”. For the same molecule, the “Bactericidal Activity, Ed, Effective M dose” value (P. aeruginosa) was 960 nM, the “endotoxin neutralizing activity (in words)” value [3] was “best endotoxin neutralizing activity” and the “Endotoxin Neutralizing Activity, % neutralization” value ([3]; 5.0 × 10^−5 M peptide, 0.02 U (0.2 pg) endotoxin from E. coli 055:B5, Table 3) was 100%. The “Endotoxin Neutralization, % neutralization” value [3, 13] was 100%, the “Endotoxin neutralization, ED, Effective M dose” value ([3]; Table 3, dose at which the % in brackets was found) was 1.2 µM and the “Endotoxin Neutralization, % at the effective dose” value [3] was 77.9%. The “Endotoxin Neutralization, Ed, Effective M dose” value [3, 14] was 1.2 µM.

In the case of “SIQDLKVSLNLFRKQAKWKIIVKLNDGRELSLD [βpep-23]”, the “effectiveness at decreasing endothelial cell growth” value ([2]; 0.26 micromolar) is reported as “about 30%”, the “Bactericidal Activity, % killing” value (P. aeruginosa) is reported as 0% and the “Bactericidal Activity, % killing at the effective dose” value (P. aeruginosa) is reported as 45.8%. The “Bactericidal Activity, Ed, Effective M dose” value (P. aeruginosa) was 480 nM, the “endotoxin neutralizing activity (in words)” value [3] was “best endotoxin neutralizing activity” and the “Endotoxin Neutralization, % neutralization” value [3, 13] was 100%. The “Endotoxin Neutralization, % at the effective dose” value [3] was 65.7% and the “Endotoxin Neutralization, Ed, Effective M dose” value [3, 14] was 1.2 µM.

In the case of MNSQVCEKVTNSVSSKLQPYFQTLPVMTKI [BG16], the “% Neutralization of Endotoxin” value (E. coli 055:B5 endotoxin) is reported as 0%, the “endotoxemia in vivo” value [1, 9] is reported as >10,000 and the “endotoxemia in vivo” value [1, 10] is reported as 2,394. For the same molecule, the “endotoxemia in vivo” value [1, 11] was 5,599 and the “endotoxemia in vivo” value [1, 12] was >10,000.

B1: βpep-5 (peptide)
peptide: KFIVTLRVIKAGPHSPTAQIIVELKNGRKLSLD-NH2
modifications: not fully specified
notes: It is entered as the monomer chain
B1 was tested, and the “ratio of average molecular weight to calculated monomer molecular weight” value [4] was 3.6 and the “average molecular weight (apparent, self-associated state)” value [5] was 12800 Da.

B2: βpep-1 (peptide)
peptide: SIQDLNVSMKLFRKQAKWKIIVKLNDGRELSLD-NH2
modifications: not fully specified
notes: Synthetic 33-mer designed de novo; It is entered as the monomer chain
B2 was tested, and the “ratio of average molecular weight to calculated monomer molecular weight” value [4] was 3.6 and the “average molecular weight (apparent, self-associated state)” value [5] was 13700 Da.

B3: βpep-8 (peptide)
peptide: ANIKLSVEMKLFKRHLKWKIIVKLNDGRELSLD-NH2
modifications: not fully specified
notes: as for B2
In the case of B3, the “ratio of apparent molecular weight to calculated monomer molecular weight” value [6] is reported as 2.4, the “average molecular weight (apparent, self-associated state)” value [5] is reported as 9490 Da and the “ratio of apparent molecular weight to calculated monomer molecular weight” value [7] is reported as 3.7.

B4: βpep-4 (peptide)
peptide: SIQDLNVSMKLFRKQAKWKINVKLNDGRELSLD-NH2
modifications: also: β-sheet sandwich tetramer
notes: as for B2
B4: binds [8].
